# Laboratory results reported in patent US20130108562A1, “Cosmetic Composition Containing Oligopeptides” (Cognis IP Management GmbH, priority 2010, published 2013).
# Residues, ends and D or L forms follow the SMILES beside them.
# Columns and labels:
# [1] = tested on: tropoelastin gene (ELN); assay: ELN mRNA level by qRT-PCR in human dermal fibroblasts; type: cell-based; settings: summary of Table 3
# Experimental: The peptide Acetyl-Val-Leu-Leu-Lys was incubated on human dermal fibroblasts cultured in vitro and the expression of the tropoelastin gene (ELN) was measured using a qRT-PCR method.
# The human dermal fibroblasts were cultured within growth medium enriched with FCS at 10% and incubated for 1 day at 37° C. Then the growth medium was exchanged for a standard medium without FCS but with or without the Acetyl-Val-Leu-Leu-Lys peptide at 1.0 μg/ml. Cells were incubated for 24 hours, 48 hours or 72 hours at 37° C. before extraction of total RNA. The level of ELN mRNAs in the different conditions was evaluated comparatively to the level of EEF1A 1 mRNA as housekeeping gene (qRT-PCR method) for each condition. The results were calculated through the level of ELN mRNA measured in the control condition (without peptide treatment) as 100% and presented as a mean+/−SEM from 3 assays in duplicate.
# [2] = tested on: collagen type I; assay: Collagen type I expression by immunocytochemistry in human dermal fibroblasts; type: cell-based
# Experimental: The peptide Acetyl-Val-Leu-Leu-Lys was incubated on human dermal fibroblasts cultured in vitro and the expression of the collagen type I was measured using an immunocytochemistry (ICC) method.
# The human dermal fibroblasts were cultured within growth medium enriched with Foetal Calf Serum (FCS) at 10% and incubated for 2 days at 37° C. Then the growth medium was exchanged for a standard medium containing sodium ascorbyl at 5 μg/ml with FCS at 1% and with or without the Acetyl-Val-Leu-Leu-Lys peptide at 5.1 mg/ml. A positive control condition with sodium ascorbyl at 20 μg/ml was performed. Cells were incubated for 72 hours at 37° C. with the peptide. Cultured human dermal fibroblasts were fixed by acetone for 10 minutes at −20° C. and incubated for 1 hour at room temperature with a primary antibody against collagen type I [Abcam] diluted at 1/250. Fluorescein isothiocyanate (FITC) labelled secondary antibody [CliniSciences, France] was used for revelation. The obtained immuno-staining was observed using a confocal laser scanning microscope [TCS SPE, Leica, France] and quantified by an image analyzer [Quantimet Q5001W, Leica, France]. The staining occupation was evaluated. The results were presented as a mean+/−SEM (Standard Error of Mean) from 6 measures.
# [3] = tested on: glutaredoxin-2 gene (GLRX2); assay: GLRX2 mRNA level by qRT-PCR in human dermal fibroblasts; type: cell-based; settings: summary of Table 4
# Experimental: The peptide Acetyl-Val-Leu-Leu-Lys was incubated on human dermal fibroblasts cultured in vitro and the expression of the glutaredoxin-2 gene (GLRX2), involved in cellular anti-oxidative defenses) was measured using a qRT-PCR method.
# The human dermal fibroblasts were cultured within growth medium enriched with FCS at 10% and incubated for 1 day at 37° C. Then the growth medium was exchanged for a standard medium without FCS with or without the Acetyl-Val-Leu-Leu-Lys peptide at 1.0 μg/ml. Cells were incubated for 6 hours at 37° C. before extraction of total RNA. The level of GLRX2 mRNAs was evaluated comparatively to the level of HPRT1 (hypoxanthine phosphoribosyltransferase I) mRNA as housekeeping gene (qRT-PCR method) for each condition.
# The results were calculated through the level of GLRX2 mRNA measured in the control condition (without peptide treatment) as 100% and presented as a mean+/−SEM from 3 assays in duplicated.
# [4] = tested on: collagen type XIV gene (COL14A1); assay: COL14A1 mRNA level by qRT-PCR in human dermal fibroblasts; type: cell-based; settings: summary of Table 2
# Experimental: The peptide Acetyl-Val-Leu-Leu-Lys was incubated on human dermal fibroblasts cultured in vitro and the expression of the collagen type XIV gene (COL14A1) was measured using a quantitative reverse-transcription and polymerase chain reaction (qRT-PCR) method.
# The human dermal fibroblasts were cultured within growth medium enriched with FCS at 10% and incubated for 1 day at 37° C. Then the growth medium was exchanged for a standard medium without FCS but with or without the Acetyl-Val-Leu-Leu-Lys peptide at 1.0 μg/ml. Cells were then incubated for 24 hours, 48 hours or 72 hours at 37° C. before extraction of total RNA. The level of COL14A1 mRNAs in the different conditions was evaluated comparatively to the level of EEF1A1 mRNA as housekeeping gene (qRT-PCR method) for each condition.
# The results were calculated through the level of COL14A1 mRNA measured in the control condition (without peptide treatment) for the different incubation times as 100% and presented as a mean+/−SEM from 3 or 5 assays in duplicate.
# [5] = tested on: epithelial cells from rabbit cornea; settings: Hara et al., Exp Eye Res, 2001; cited from earlier work
# [6] = tested on: injured rabbit cornea; settings: Hara et al., Exp Eye Res, 2001; cited from earlier work
molecule,measurement,setting,value
"CC(=O)N[C@H](C(=O)N[C@@H](CC(C)C)C(=O)N[C@@H](CC(C)C)C(=O)N[C@@H](CCCCN)C(=O)O)C(C)C [Acetyl-Val-Leu-Leu-Lys, N-Acetyl-Val-Leu-Leu-Lys-OH] (Ac-VLLK-OH)",effect on level of ELN gene expression (in words),[1],specifically and significantly increased the level of ELN gene expression
same,effect on level of collagen type I (in words),[2]; summary of Table 1,significantly increased the level of collagen type I
same,effect on level of GLRX2 gene expression (in words),[3],specifically increased the level of GLRX2 gene expression
same,effect on level of COL14A1 gene expression (in words),[4],specifically and significantly increased the level of COL14A1 gene expression
Val-Leu-Leu-His (VLLH; printed: Val-Leu-Leu-His),proliferation of epithelial cells from rabbit cornea (in words),[5],stimulate proliferation of epithelial cells from rabbit cornea
same,wound healing activity on injured rabbit cornea (in words),[6],significant wound healing activity on injured rabbit cornea
sodium ascorbyl [reference compound],% of staining occupation (collagen type I immuno-staining),"[2]; positive control at 20 μg/ml, 72 hours, human dermal fibroblasts, mean +/− SEM from 6 measures, control 10.68 +/− 1",18.01 +/− 1.07 (**) %
